Measured values from PubChem BioAssay (NCI).
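Values below derive from 48-hour exposures of cells grown in 96-well plates, with endpoints linearly interpolated between the two concentrations bracketing the appropriate inhibition level. Definition used: TGI = concentration required for complete inhibition of growth.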

Columns and labels:
Test in all cases: DTP human tumour cell line panel, 48 h
HS 578T breast = tested on: HS 578T breast
MDA-MB-231 breast = tested on: MDA-MB-231 breast
NCI-H23 lung = tested on: NCI-H23 lung
SN12C renal = tested on: SN12C renal
K-562 leukemia = tested on: K-562 leukemia
CCRF-CEM leukemia = tested on: CCRF-CEM leukemia
KM12 colon = tested on: KM12 colon
OVCAR-8 ovarian = tested on: OVCAR-8 ovarian
A498 renal = tested on: A498 renal
SF-539 CNS = tested on: SF-539 CNS
SW-620 colon = tested on: SW-620 colon
IGROV1 ovarian = tested on: IGROV1 ovarian
HOP-92 NSCLC = tested on: HOP-92 NSCLC
TK-10 renal = tested on: TK-10 renal
RXF 393 renal = tested on: RXF 393 renal
DU-145 prostate = tested on: DU-145 prostate

SMILES | TGI (HS 578T breast) [µM] | TGI (MDA-MB-231 breast) [µM] | TGI (NCI-H23 lung) [µM] | TGI (SN12C renal) [µM] | TGI (K-562 leukemia) [µM] | TGI (CCRF-CEM leukemia) [µM] | TGI (KM12 colon) [µM] | TGI (OVCAR-8 ovarian) [µM] | TGI (A498 renal) [µM] | TGI (SF-539 CNS) [µM] | TGI (SW-620 colon) [µM] | TGI (IGROV1 ovarian) [µM] | TGI (HOP-92 NSCLC) [µM] | TGI (TK-10 renal) [µM] | TGI (RXF 393 renal) [µM] | TGI (DU-145 prostate) [µM]
C/C(=N\Nc1nc2ccccc2[nH]1)c1ccncn1 | > 100 | > 100 | > 33.3 | 10.2 | > 100 | > 36.6 | 35.9 | > 87.6 | 6.38 | > 100 | > 100 | 43.8 | 0.293 | > 100 |  | 
CC(=O)OCc1cccc(O)c1C(=O)CCC=C(C)C | > 100 |  | > 100 | > 100 | > 100 | > 100 | > 100 |  | > 100 | > 100 | > 100 | > 100 | > 100 | > 100 | > 100 | > 100
COc1cc(COC(=O)N2CCCCC2C(=O)O)c([N+](=O)[O-])cc1OC (stereo not given) | > 100 |  | > 100 | > 100 | > 100 | > 100 | > 100 | > 100 | > 100 | > 100 | > 100 | > 100 | > 100 | > 100 | > 100 | > 100
Cc1ccc(S(=O)(=O)c2c(N)c3nccn3c3nc4ccccc4nc23)cc1 |  |  | > 100 | > 100 | > 100 | > 100 | > 100 | > 100 |  | > 100 | > 100 | > 100 | > 100 | > 100 |  | 
Cc1c(/C=N/NC(=O)c2ccccc2)c(=O)n(-c2ccccc2)n1C |  |  | > 100 | > 100 | > 100 | > 100 | > 100 | > 100 | > 100 | > 100 | > 100 | > 100 | > 100 | > 100 | > 100 | 
COc1cc2c(c(N)c1OC)C(=O)/C(=C/c1cc(C)c(O)c(C)c1)C2 |  | > 100 | > 46.6 | > 100 |  | 11.7 | 1.82 | > 100 | > 90.4 |  | > 100 | > 100 | > 100 | > 100 | > 100 | 16.9
COc1nc(/C=N/NC(N)=S)nc(OC)n1 |  |  | > 100 | > 100 | > 100 |  | > 100 | > 100 | > 100 | > 100 | > 100 | > 100 | > 100 | > 100 | > 100 | 
Cc1ccccc1N=Cc1ccc(N(CCC#N)S(=O)(=O)c2ccccc2)cc1 |  |  | > 100 | > 100 | > 100 | > 100 | > 100 | > 100 | > 100 | > 100 | > 100 | > 100 | > 100 | > 100 | > 100 | 
O=c1n(CCCN2CCN(c3cccc(Cl)c3)CC2)nc2n1-c1ccc3ccccc3c1SC2 | > 100 |  |  | > 100 | > 100 | > 100 | > 100 | > 100 | > 100 | > 100 | > 100 | > 100 | > 100 | > 100 | > 100 | > 100
C/C(O)=C(/C=N\C(=S)Nc1ccc(Cl)c(Cl)c1)C(=O)Nc1ccccc1C |  | > 100 | 76.8 | > 100 |  |  | > 100 | 66.3 | 79.6 | > 100 | > 100 | > 100 | 58.1 | > 100 | > 100 | 92
Cn1c(N(CCO)CCO)cnc1[N+](=O)[O-] | > 100 | > 100 | > 100 |  | > 100 | > 100 | > 100 | > 100 | > 100 | > 100 | > 100 | > 100 | > 100 | > 100 | > 100 | 
CC(C)=CCC/C(C)=C/CC/C(C)=C/CC/C=C(\C)CC/C=C(\C)CCC1SC1(C)C (stereo not given) |  |  | > 100 | > 100 | > 100 | > 100 | > 100 | > 100 | > 100 | > 100 | > 100 | > 100 | > 100 | > 100 | > 100 | 
CSC(=NC1CC(n2cc(C)c(=O)[nH]c2=O)OC1CO)NC#N (stereo not given) |  | > 100 | > 100 | > 100 | > 100 | > 100 | > 100 | > 100 | > 100 | > 100 | > 100 | > 100 | > 100 | > 100 | > 100 | > 100
COC(=O)c1ccccc1/C=C1\Cc2cc3c(cc2C1=O)CCC3 |  | > 100 | > 100 | > 100 |  |  | > 100 | > 100 | > 100 | > 100 | > 100 | > 100 |  | > 100 |  | > 100
C=C1C(=O)OC2C[C@H](C)C3CC(=O)C(C)=C3CC12 (stereo not given in full) |  |  | 28.7 | 26.1 | 23.1 | 15.7 | 33.3 | 39.3 | 43.7 | 35 | 18.7 | 31.4 | 24.1 | 30.5 | 31.6 | 
CC(N)C(=O)c1ccc(O)cc1 (stereo not given) |  |  | > 100 | > 100 | > 100 | > 100 | > 100 | > 100 | > 100 | > 100 | > 100 | > 100 | > 100 | > 100 | > 100 | 
CC(=O)O[C@H]1C(=O)[C@@]2(C)[C@H]([C@H](OC(=O)c3ccccc3)[C@]3(O)C[C@H](OC(=O)[C@H](O)[C@@H](NC(=O)c4ccccc4)C4CCCCC4)C(C)=C1C3(C)C)[C@]1(OC(C)=O)CO[C@@H]1C[C@@H]2O | < 0.01 | 28.6 | > 100 |  | > 51.9 | > 62.7 | 37.1 | 98.8 |  | 0.0214 | > 100 | > 61.3 | 64.1 | 37.4 | 0.013 | 
Nc1ncnc2c1ncn2[C@@H]1C[C@H]1CO | > 100 | > 100 | > 100 | > 100 | > 100 | > 100 | > 100 | > 100 | > 100 | > 100 | > 100 |  |  |  |  | 
CC(C)(C)c1ccc(-c2nc3ccccc3c(=O)o2)cc1 | > 100 |  | > 100 | > 100 | > 100 | 44.2 | > 100 | > 100 | > 100 | > 100 | > 100 | > 100 | > 100 | > 100 | > 100 | > 100
CNc1nnnn1C1OC(CO)C(O)C1O (stereo not given) |  |  |  | > 100 | > 100 | > 100 | > 100 | > 100 | > 100 | > 100 | > 100 | > 100 |  | > 100 | > 100 | 
CN(C)C1(C(=O)O)CC1 | > 100 |  | > 100 | > 100 | > 100 | > 100 |  | > 100 | > 100 | > 100 | > 100 | > 100 | > 100 | > 100 | > 100 | > 100
CC1=Nc2nc3ccccc3n2C(C)(C)C1 | > 100 | > 100 | > 100 |  | > 100 | > 100 | > 100 | > 100 | > 100 | > 100 | > 100 | > 100 | > 100 | > 100 | > 100 | 
COc1ccc(-c2nc(N(C)C)c3ccccc3n2)cc1 | 59.2 | 96.5 | 69 | 39.8 | 40.7 |  | 68.8 | > 100 |  | 42.8 | 63.5 | > 100 | 68.8 | 65.8 | 24.7 | 
Cc1nc2c(O)cccc2c(=O)[nH]1 | > 1000 |  | > 1000 | > 1000 | > 1000 | > 1000 | > 1000 | > 1000 | > 1000 | > 1000 | > 1000 | > 1000 | > 1000 | > 1000 | > 1000 | 
Cc1ccc(S(=O)(=O)NC(=O)C2(Br)S(=O)(=O)OCCOS2(=O)=O)cc1 |  |  | > 100 | > 100 | > 100 | > 100 |  | > 100 | > 100 | > 100 |  | > 100 | > 100 | > 100 | > 100 | 
CCN(CC)CCCC(C)NC(=O)c1cc(-c2nccn2C)nc2ccc(C)cc12 (stereo not given) |  | > 100 | > 100 |  |  |  | > 100 | > 100 | > 100 | > 100 | > 100 | > 100 | > 100 | > 100 | > 100 | > 100
CCCCCCc1cc2cc(C(=O)Nc3ccccc3F)c(=N)oc2cc1O | 63.8 |  | 8.03 |  | > 100 | 21.7 | 19.7 | 8.34 | 37.2 | 39.3 | > 100 | 13.7 |  |  |  | 25.2
